Test results reported in US20050255071A1, “Preparation having improved therapeutic breadth comprising nucleotide synthesis inhibitors” (Aventis Pharma Deutschland GmbH, priority 1998, published 2005).
Like-named read-outs stand apart in the source and are kept apart here.

Key:
[1] = Blood level and duration of action of compound 1 after time-displaced colestyramine; assay type: in vivo; details: with time-displaced administration of colestyramine (2 hours or 4 hours after compound 1)
Text: The preparation according to the invention can also include compositions or combination packs in which the constituents are placed next to one another and can therefore be used simultaneously, separately, or sequentially on one and the same human or animal body. The sequential administration of a compound of formula (I) and/or (II) before the administration of a compound, which essentially prevents the enterohepatic circulation of a compound of formula (I) and (II), is preferred. To this end, for example, N-(4-trifluoromethylphenyl)-2-cyano-3-hydroxycrotonamide (called compound 1 in the following) is administered first. Colestyramine, which essentially prevents the enterohepatic circulation of compound 1, is administered with a displacement in time, i.e., 2 hours or 4 hours after the administration of compound 1. Because of the time-displaced administration of compound 1 relative to colestyramine, compound 1 is initially absorbed unhindered from the digestive tract. After the administration of colestyramine, which is not absorbed systemically, compound 1 excreted via the bowel is bound to colestyramine, and cannot therefore be reabsorbed again; as a result, an interruption to the enterohepatic circulation is brought about.

[2] = tested on: Adjuvant-Induced Arthritis; assay type: in vivo, rats
Protocol: Adjuvant-Induced Arthritis, Modification According to Perper (Proc. Soc. Exp. Biol. Med. 137, 506 (1971)).
(§1) The experimental animals used were male rats of a Lewis strain (Moellegard, Denmark) having a body weight of from 160 to 210 g. On the 1st day, the animals were injected subcutaneously, into the tail root, with complete Freund's adjuvant containing a Mycobacterium butyricum suspension in heavy paraffin oil (Difco, 6 mg/kg in paraffin oil, Merck). The compounds N-(4-trifluoromethylphenyl)-2-cyano-3-hydroxycrotonamide and colestyramine were suspended in carboxymethylcellulose (1% in water), and administered orally. The compounds were administered once daily from the 1st to the 17th day of the experiment; the paw volume and arthritis index were then determined on the 18th day.
The severity of the disorder was determined by measuring the paw volume of both hind paws. The measurement was carried out by means of the water displacement method using a 2060 Plethys monitor (Rhema-Labortechnik, Hofheim, Germany). The arthritis index was furthermore determined in the 18th day after injection.
Determination of the arthritis index was scored as follows:
On the first day, animals of an “arthritis control” control group were given a subcutaneous injection, into the tail root, with complete Freund's adjuvant but were given only the solvent (i.e., 1% cabrboxymethylcellulose in water). Six animals in each case were used per dose and in the control group. Untreated animals were employed as a further “healthy control” control group. The activity criteria used were the reduction of the increase in the paw volume and the decrease in the arthritis index, compared with the untreated control group, and the weight of the animals, in each case in percent and based on the arthritis control.
In the following table, N-(4-trifluoromethylphenyl)-2-cyano-3-hydroxycrotonamide is compound 1. Colestyramine was administered 4 hours later than compound 1.

[3] = GOT, GPT, RBC, HGB, HCT in adjuvant-arthritis rats (Example 2); details: rat, in vivo, po, 25 mg/kg
Protocol: as §1
The experimental conditions were analogous to Example 1. The actions of compound 1 and colestyramine on the amount of red blood corpuscles (RBC), hemoglobin content (HGB), hematocrit (HCT), amount of glutamate oxlacetate transaminase (GOT), and glutamate pyruvate transaminase (GPT) were determined. Colestyramine was administered 4 hours later than compound 1.

[4] = Alkaline phosphatase and amylase in adjuvant-arthritis rats (Example 3); details: rat, in vivo, po, 25 mg/kg
Protocol: as §1
The experimental conditions were analogous to Example 1. The actions of compound 1 and colestyramine on the amount on the of alkaline phosphatase (AP) and amylase were determined. Colestyramine was administered 4 hours later than compound 1.

[5] = Example 1, 2.5 mg/kg of live weight oral once daily day 1-17, day 18
[6] = Example 1, 7.5 mg/kg of live weight oral once daily day 1-17, day 18
[7] = Example 1, 25 mg/kg of live weight oral once daily day 1-17, day 18
[8] = Example 2, 25 mg/kg of live weight oral
[9] = Example 3, 25 mg/kg of live weight oral

Question: Which “blood level of compound 1” value [1] does the source give for `C/C(O)=C(\C#N)C(=O)Nc1ccc(C(F)(F)F)cc1` [Compound 1, N-(4-trifluoromethylphenyl)-2-cyano-3-hydroxycrotonamide] here?
Answer: drastically reduced

Question: And the duration of action [1]?
Answer: drastically reduced

Question: And the “desired actions on the immune system” value ([2]; 25 mg/kg/day of compound 1, with administration of colestyramine)?
Answer: retention

Question: And the Arthritis index [2, 5]?
Answer: −77%

Question: What about the “Paw Volume” value [2, 5] of the same molecule?
Answer: −63%

Question: What about the Arthritis index [2, 6] of the same molecule?
Answer: −92%

Question: And the “Paw Volume” value [2, 6]?
Answer: −83%

Question: And the Arthritis index [2, 7]?
Answer: −100%

Question: And the “Paw Volume” value [2, 7]?
Answer: −92%

Question: What about the Arthritis index [2, 8] of the same molecule?
Answer: −100%

Question: What about the “Paw Volume” value [2, 8] of the same molecule?
Answer: −92%

Question: What about the “Arthritis index” value [2, 9] of the same molecule?
Answer: −100%

Question: What about the Paw Volume [2, 9] of the same molecule?
Answer: −110%

Question: And the “activity in adjuvant arthritis” value ([2]; approximately 2.5 mg/kg/day of compound 1, with administration of colestyramine)?
Answer: not reduced

Question: What about the GOT [3] of the same molecule?
Answer: 85.3 U/I

Question: And the GPT [3]?
Answer: 25.1 U/I

Question: What about the HCT [3] of the same molecule?
Answer: 18.7%

Question: And the HGB [3]?
Answer: 6.1 g/dL

Question: And the RBC [3]?
Answer: 3.8 *10^6/mm^3

Question: And the AP [4]?
Answer: 114.8 U/I

Question: And the Amylase [4]?
Answer: 1306.5 U/I
